This note sets out measurements from US11261175B2 (priority 2017, dated 2022).

Type in all cases: cell-based
Experiment [1] has as its system HCV replicon S52-Feo (genotype 3a). As to the kind of experiment: Anti-HCV activity using HCV replicon S52-Feo (genotype 3a) in Huh 7.5.1 cells, luciferase readout. The settings on record: Hepatitis C virus, 72 h; Huh 7.5.1 cells with S52-Feo replicon, 3 days, firefly luciferase; read-out: HCV wt. GT-3a. On the technique in general: Replicon systems follow genome replication, usually without infectious particles.

The subject of experiment [2] is HCV replicon NK5.1-Gluc (genotype 1b). As to the kind of experiment: Anti-HCV activity using HCV replicon NK5.1-Gluc (genotype 1b) in Huh 7.5.1 cells, luciferase readout. The settings on record: Hepatitis C virus, 72 h; Huh 7.5.1 cells with NK5.1-Gluc replicon, 3 days, Gaussia luciferase; read-out: HCV wt. GT-1b.
Experiment [3] relates to HCV genotype 1b replicon with NS5A Y93H mutation. As to the kind of experiment: Transiently transfected assay of genotype 1b resistance mutant RNA Y93H. The settings on record: Hepatitis C virus, Huh-7.5.1, 72 h, read-out: HCV Mutation Y93H. Summed up: (§1)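 Huh7.5.1 cells were electroporated with in vitro-transcribed, ScaI-linearized replicon RNAs carrying the Daclatasvir-resistance substitutions, then seeded 4 h later into DMEM with serially diluted compound. After 3 days, intracellular luciferase activity was read and normalized to mock-treated cells.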

The subject of experiment [4] is JFH5a-Rluc-ad34 virus (HCV GT-2a). As to the kind of experiment: Anti-HCV activity using HCVcc (JFH5a-Rluc-ad34 virus) in Huh 7.5.1 cells, Renilla luciferase readout. Particulars: Hepatitis C virus, GT2A, Huh-7.5.1, 72 h, read-out: HCV wt. GT-2a. An outline of the steps: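 Huh 7.5.1 cells were inoculated with JFH5a-Rluc-ad34, a JFH1-derived virus with adaptive E2/p7 mutations, for 4 h before serially diluted compound was added. Intracellular Renilla luciferase was read after three days and normalized to mock-treated controls.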

Experiment [5] deals with HCV genotype 1b replicon with NS5A L31V+Y93H (double mutant). As to the kind of experiment: Transiently transfected assay of genotype 1b resistance mutant RNA L31V+Y93H (double mutant). Particulars: Hepatitis C virus, Huh-7.5.1, 72 h, read-out: HCV Mutation L31V + Y93H. An outline of the steps: as §1
Experiment [6] concerns HCV genotype 1b replicon with NS5A L31V mutation. Put plainly: Transiently transfected assay of genotype 1b resistance mutant RNA L31V. The settings on record: Hepatitis C virus, Huh-7.5.1, 72 h, read-out: HCV Mutation L31V. Summed up:
as §1

Structures are written as SMILES.

Take `CCCCC1(CCCC)c2cc(NC(=O)[C@@H]3CC4(CN3C(=O)[C@H](NC(=O)OC)c3ccccc3)OCCO4)ccc2-c2ccc(NC(=O)[C@@H]3CC4(CN3C(=O)[C@H](NC(=O)OC)c3ccccc3)OCCO4)cc21` [Example 15, dimethyl ((1R,1′R)-((8S,8′S)-(((9,9-dibutyl-9H-fluorene-2,7-diyl)bis(azanediyl))bis(carbonyl))bis(1,4-dioxa-7-azaspiro[4.4]nonane-8,7-diyl))bis(2-oxo-1-phenylethane-2,1-diyl))dicarbamate]: the EC50 in experiment [1] is 0.1 to 1 nM; in experiment [2], 0.001 to 0.01 nM; in experiment [3] it was 0.01 to 0.1 nM; in experiment [4] it was 1 to 100 nM; in experiment [5], 0.01 to 0.1 nM; in experiment [6], 0.001 to 0.01 nM.
